What follows are compounds tested against T1, SARM1 (ARM-SAM-TIR, full length SARM1) (Homo sapiens, UniProt Q6SZW1) (assay: not given). Conditions: read-out: SARM1 IC50; ARM-SAM-TIR lysate 5 μg/mL from NRK1-HEK293T cells, 2 h pre-incubation, 5 uM NAD+, 2 hr room temperature.
T1 sequence (Q6SZW1 with tags, fused parts or gaps): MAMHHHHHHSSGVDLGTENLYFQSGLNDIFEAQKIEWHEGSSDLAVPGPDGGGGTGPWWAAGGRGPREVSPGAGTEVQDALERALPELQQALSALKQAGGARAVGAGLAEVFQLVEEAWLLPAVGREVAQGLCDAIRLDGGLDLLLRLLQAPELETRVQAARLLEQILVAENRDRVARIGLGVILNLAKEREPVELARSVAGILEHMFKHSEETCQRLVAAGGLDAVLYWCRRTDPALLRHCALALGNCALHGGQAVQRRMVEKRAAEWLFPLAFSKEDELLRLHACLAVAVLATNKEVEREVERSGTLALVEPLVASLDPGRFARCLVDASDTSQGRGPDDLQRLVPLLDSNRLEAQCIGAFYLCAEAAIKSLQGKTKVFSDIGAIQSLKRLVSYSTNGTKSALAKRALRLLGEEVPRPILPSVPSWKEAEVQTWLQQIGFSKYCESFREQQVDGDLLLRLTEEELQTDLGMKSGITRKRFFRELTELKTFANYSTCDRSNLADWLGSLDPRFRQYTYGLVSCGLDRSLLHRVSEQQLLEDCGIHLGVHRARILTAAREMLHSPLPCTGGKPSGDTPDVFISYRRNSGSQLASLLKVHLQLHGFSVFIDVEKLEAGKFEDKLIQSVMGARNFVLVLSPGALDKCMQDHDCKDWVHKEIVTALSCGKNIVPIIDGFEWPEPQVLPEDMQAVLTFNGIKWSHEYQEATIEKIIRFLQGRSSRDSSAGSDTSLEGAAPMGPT
O=C1C(Cc2ccc(Cl)cc2)CCCN1c1nnc(-c2ccncc2)[nH]1 (single isomer, unassigned) [I-5* (peak 2)] showed an IC50 of under 0.05 µM.
O=C1C(Cc2ccc(F)c(F)c2)CCN1c1cc(-c2ccncc2)n[nH]1 (single isomer, unassigned) [I-16* (peak 2)] gave an IC50 of under 0.05 µM.
O=C1C(Cc2ccc(Cl)cc2)CCCN1c1cc(-c2ccncc2)n[nH]1 (single isomer, unassigned) [I-19* (peak 2)] showed an IC50 of under 0.05 µM.
Work on N#Cc1ccc(CC2CCN(c3cc(-c4ccncc4)n[nH]3)C2=O)cc1F (single isomer, unassigned) [I-37* (peak 2)] yielded an IC50 of 0.051 to 0.1 µM.
Work on Cc1c(-c2ccncc2)n[nH]c1N1CCC(Cc2cnc(Cl)c(F)c2)C1=O (single isomer, unassigned) [I-41* (peak 2)] yielded an IC50 of 0.101 to 0.5 µM.
O=C1N(c2nc(-c3ccncc3)n[nH]2)CCC1(F)Cc1ccc(Cl)nc1 (single isomer, unassigned) [I-42* (peak 2)] gave an IC50 of over 1 µM.
In the case of Cc1c(-c2ccncc2)n[nH]c1N1CCC(Cc2ccc(Cl)nc2)C1=O (single isomer, unassigned) [I-48* (peak 2)], the IC50 is reported as 0.101 to 0.5 µM.
In the case of O=C1C(Cc2cnc(Cl)c(F)c2)CCN1c1cc(-c2ccncc2)n[nH]1 (single isomer, unassigned) [I-65* (peak 2)], the IC50 is reported as under 0.05 µM.
Work on O=C1[C@H](Cc2ccc(Cl)c(F)c2)CCCN1c1cc(-c2ccnnc2)n[nH]1 [I-76*] yielded an IC50 of under 0.05 µM.
O=C1[C@H](Cc2ccc(Cl)nc2)CCCN1c1cc(-c2ccnnc2)n[nH]1 [I-77*] gave an IC50 of under 0.05 µM.
In the case of O=C1[C@H](Cc2ccc(F)nc2)CCCN1c1cc(-c2ccnnc2)n[nH]1 [I-84*], the IC50 is reported as under 0.05 µM.
In the case of O=C1[C@H](Cc2ccc(F)cc2)CCCN1c1cc(-c2ccnnc2)n[nH]1 [I-85*], the IC50 is reported as under 0.05 µM.

What follows are compounds tested against T1, SARM1 (ARM-SAM-TIR, full length SARM1) (assay: biochemical). Conditions: SARM1 IC50 (nM), ARM-SAM-TIR lysate 5 μg/mL from NRK1-HEK293T cells, 2 h pre-incubation, 5 uM NAD+, 2 hr room temperature.
Description: This assay makes use of full length SARM1, which encompasses the ARM, SAM and TIR domains.
Preparation of ARM-SAM-TIR lysate (STL)
NRK1-HEK293T cells were seeded onto 150 cm^2 plates at 20×10^6 cells per plate. The next day, the cells were transfected with 15 g ARM-SAM-TIR expression plasmid, SEQ ID NO: 1.
The cultures were supplemented with 1 mM NR at time of transfection to minimize toxicity from ARM-SAM-TIR overexpression. Forty-eight hours after transfection, cells were harvested, pelleted by centrifugation at 1,000 rpm (Sorvall ST 16R centrifuge, Thermo Fisher), and washed once with cold PBS (0.01 M phosphate buffered saline NaCl 0.138 M; KCl 0.0027 M; pH 7.4). The cells were resuspended in PBS with protease inhibitors (cOmplete™ protease inhibitor cocktail, Roche product #11873580001) and cell lysates were prepared by sonication (Branson Sonifer 450, output=3, 20 episodes of stroke). The lysates were centrifuged (12,000×g for 10 min at 4° C.) to remove cell debris and the supernatants (containing ARM-SAM-TIR protein) were stored at −80° C. for later use in the in vitro ARM-SAM-TIR NADase assay (see below). Protein concentration was determined by the Bicinchoninic (BCA) method and used to normalize lysate concentrations.
ARM-SAM-TIR IC50 assay of Formula I compounds.
The enzymatic assay was performed in a 384-well polypropylene plate in Dulbecco's PBS buffer in a final assay volume of 20 μL. ARM-SAM-TIR lysate with a final concentration of 5 μg/mL was pre-incubated with the respective compound at 1% DMSO final assay concentration over 2h at room temperature. The reaction was initiated by addition of 5 uM final assay concentration of NAD+ as substrate. After a 2 hr room temperature incubation, the reaction was terminated with 40 μL of stop solution of 7.5% trichloroactetic acid in acetonitrile. The NAD+ and ADPR concentrations were analyzed by a RapidFire High Throughput Mass Spectrometry System (Agilent Technologies, Santa Clara, Calif.) using an API4000 triple quadrupole mass spectrometer (AB Sciex Framingham, Mass.).
Work on N#Cc1cc(CC2CCCN(c3nc(-c4ccncc4)n[nH]3)C2=O)ccc1F (stereo not drawn) [Compound I-101] yielded an IC50 of 101 to 500 nM.
Compound N#Cc1cc(CC2CCCN(c3cc(-c4ccncc4)n[nH]3)C2=O)ccc1Cl (stereo not drawn) [Compound I-102] has an IC50 of 51 to 100 nM.
N#Cc1cc(CC2CCCN(c3nc(-c4ccncc4)n[nH]3)C2=O)ccc1Cl (stereo not drawn) [Compound I-103] was tested, and the IC50 was 101 to 500 nM.
N#Cc1ccc(CC2CCN(c3nc(-c4ccncc4)n[nH]3)C2=O)cn1 (stereo not drawn) [Compound I-111] gave an IC50 of over 1000 nM.
O=C1C(Cc2ccc(C(F)(F)F)nc2)CCN1c1cc(-c2ccncc2)n[nH]1 (stereo not drawn) [Compound I-112] was tested, and the IC50 was 101 to 500 nM.
Work on N#Cc1ccc(CC2CCN(c3cc(-c4ccncc4)n[nH]3)C2=O)cc1 (stereo not drawn) [Compound I-114] yielded an IC50 of 101 to 500 nM.
N#Cc1ccc(CC2CCN(c3nc(-c4ccncc4)n[nH]3)C2=O)cc1 (stereo not drawn) [Compound I-115] was tested, and the IC50 was 501 to 1000 nM.
N#Cc1cc(CC2CCN(c3cc(-c4ccncc4)n[nH]3)C2=O)ccc1F (stereo not drawn) [Compound I-116] was tested, and the IC50 was 101 to 500 nM.
N#Cc1cc(CC2CCN(c3cc(-c4ccncc4)n[nH]3)C2=O)ccc1Cl (stereo not drawn) [Compound I-118] gave an IC50 of 101 to 500 nM.
